In the experiment the target is T1, NR2B subunit of NMDA receptor (Rattus norvegicus, UniProt Q00960).
T1 construct: gene Grin2b; native NMDA receptor in rat cerebral cortex membranes; with NR1
It counts as binding.

Each structure is given as a SMILES string. Like-named read-outs stand apart in the source and are kept apart here.

T1 sequence (Q00960 27-1482, other chains not shown): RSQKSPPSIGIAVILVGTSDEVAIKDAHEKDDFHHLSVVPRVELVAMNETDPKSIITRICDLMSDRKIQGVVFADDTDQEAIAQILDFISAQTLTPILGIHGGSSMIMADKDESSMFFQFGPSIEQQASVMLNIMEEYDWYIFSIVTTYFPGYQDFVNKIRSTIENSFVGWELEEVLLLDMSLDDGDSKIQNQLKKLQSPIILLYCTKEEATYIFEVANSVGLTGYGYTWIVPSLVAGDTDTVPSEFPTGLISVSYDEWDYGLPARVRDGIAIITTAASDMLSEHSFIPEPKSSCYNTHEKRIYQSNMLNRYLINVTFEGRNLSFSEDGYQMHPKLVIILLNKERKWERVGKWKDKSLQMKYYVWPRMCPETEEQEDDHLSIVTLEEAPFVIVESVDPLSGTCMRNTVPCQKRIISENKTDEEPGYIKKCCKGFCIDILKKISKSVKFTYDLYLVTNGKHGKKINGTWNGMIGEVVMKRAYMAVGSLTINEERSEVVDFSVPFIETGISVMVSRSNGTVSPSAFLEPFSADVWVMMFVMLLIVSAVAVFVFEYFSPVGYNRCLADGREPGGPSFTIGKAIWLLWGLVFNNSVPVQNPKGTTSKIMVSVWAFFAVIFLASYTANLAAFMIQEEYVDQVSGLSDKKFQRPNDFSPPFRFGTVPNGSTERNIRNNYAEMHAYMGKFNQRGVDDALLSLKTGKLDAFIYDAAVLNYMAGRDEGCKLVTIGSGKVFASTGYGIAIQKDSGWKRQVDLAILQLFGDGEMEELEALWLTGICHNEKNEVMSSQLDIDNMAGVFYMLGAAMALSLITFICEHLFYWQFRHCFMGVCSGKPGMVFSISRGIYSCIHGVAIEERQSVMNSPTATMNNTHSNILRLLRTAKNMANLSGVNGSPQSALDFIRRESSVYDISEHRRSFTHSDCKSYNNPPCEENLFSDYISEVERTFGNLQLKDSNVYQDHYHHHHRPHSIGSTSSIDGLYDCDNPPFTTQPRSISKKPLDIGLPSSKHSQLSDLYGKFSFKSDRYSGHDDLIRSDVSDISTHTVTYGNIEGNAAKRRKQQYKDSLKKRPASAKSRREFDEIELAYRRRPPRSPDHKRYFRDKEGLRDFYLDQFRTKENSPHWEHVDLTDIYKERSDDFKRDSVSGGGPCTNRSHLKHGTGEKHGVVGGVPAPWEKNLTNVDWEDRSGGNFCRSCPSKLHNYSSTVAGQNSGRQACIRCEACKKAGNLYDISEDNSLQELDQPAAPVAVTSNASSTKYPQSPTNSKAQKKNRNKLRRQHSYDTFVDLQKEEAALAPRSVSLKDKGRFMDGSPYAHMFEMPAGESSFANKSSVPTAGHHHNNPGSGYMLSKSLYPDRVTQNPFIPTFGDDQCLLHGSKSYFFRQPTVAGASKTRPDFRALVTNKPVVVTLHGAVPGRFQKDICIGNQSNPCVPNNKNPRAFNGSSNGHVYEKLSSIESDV

`N=C(N)c1ccc2cc(OC(=O)c3ccc(N=C(N)N)cc3)ccc2c1` [nafamostat] came in with a Ki of 4.2 µM.

As to `N=C(N)c1ccc2cc(OC(=O)c3ccc(NC4=NCCN4)cc3)ccc2c1` [sepimostat, 6-amidino-2-naphthyl[4-(4,5-dihydro-1H-imidazol-2-yl)amino] benzoate dimethane sulfonate], the Ki (read-out: Ki) came to 27.7 µM.

(Values after paper PMC6938488, “Nafamostat and sepimostat identified as novel neuroprotective agents via NR2B N-methyl-D-aspartate receptor antagonism using a rat retinal excitotoxicity model” (Scientific Reports, 2019).)
